Measurements reported in PMC12717099, “Peptidoglycan recruitment by a penicillin binding protein” (Nature Communications, 2025).
Like-named read-outs stand apart in the source and are kept apart here.

Assays:
PBP5:ceftaroline complex = assay: 1D 1H STD NMR of SP2 with PBP5:ceftaroline; type: binding, Enterococcus faecium; settings: for STD amplification factor: ceftaroline-saturated PBP5, 2 s saturation
Source text: Total saturation time for STD measurements was 2 s.
Overlapped peaks were completely excluded from the analysis.

PBP4 = settings: for STD amplification factor, 2000: protein:peptide 1:100, 2 s saturation
Description: STD NMR experiments were carried out on 0.02 mM unlabeled PBP5T485, PBP4, and PBP2B in NMR buffer (10 mM MES pH 5.8, 25 mM NaCl) at 308 K with the peptides (SP1, SP2, SP4, SP5 and SP6 with PBP5, SP2 also with PBP4 and PBP2B) at 1:100 PBP5:peptide molar ratios using a pseudo 2D pulse sequence that leverages a shaped pulse train for saturation and selected water suppression by excitation sculpting with gradients. All STD experiments were performed at 800 MHz for best resolution and least signal overlap. Total saturation time for STD measurements was 2 s. A 2 s recycling delay, and 64 scans were used for all STD experiments. Selective protein saturation was achieved by setting the on-resonance frequency on PBP5 methyl peaks at 0.73 ppm. For the off-resonance (reference) spectrum, the irradiation frequency was shifted to −40 ppm. […] LTotal/PTotal is the ligand excess relative to a constant protein concentration.
For a uniform analysis, we normalized the STD amplification factor by using the highest STD amplification factor in the SP1:PBP5 analysis and using the same STD amplification factor to normalize other SPs (SP2-6) to allow for a rigorous comparison. For the analysis of the STD NMR data only data from non-exchangeable protons (CH groups) were utilized. Overlapped peaks were completely excluded from the analysis.

[1] = tested on: E. faecium D344SRF pCWR624Δpbp5_pbp5_V3; assay: MIC by broth microdilution, pbp5_V3; type: cell-based, Enterococcus faecium; settings: strain pbp5_V3 (loop 625-631); 37 °C, 20 h; n=3
Description: (§1) The synthetic genes were purchased from GeneWiz (South Plainfield, NJ). The ribosome binding site sequence AGGAGG (Shine-Dalgarno), and a string of five A’s followed by the sequence […], that corresponds to the first 15 bp found in pbp5 from E. faecium C68 were added upstream of the START codon. The terminator sequence […] was added downstream of the STOP codon. BamHI restriction sites were added to the flanking 5′ and 3′ ends. The synthetic genes were inserted into the vector pCWR624Δpbp5. This vector was derived from pCWR624[10], in which the pbp5 gene from D366 was excised by digestion with BamHI followed by re-ligation of the vector, allowing subsequent insertion of modified synthetic pbp5s into the BamHI site downstream of ftsWEfm and psr from E. faecium C68[10]. The synthetic genes were inserted in a BamHI site located downstream of psr. The proper orientation was confirmed by PCR amplification using the forward primer OR_pbp5_FOR_1 (5′-[…]-3′) and the reverse primer OR_pbp5_REV_1 (5′-[…]-3′). Plasmids were sequence verified for the specific binding site mutations. The resulting constructions were electroporated into the natural pbp5(-) mutant E. faecium D344SRF with a selection on brain heart infusion agar (BHI) plates containing kanamycin (1500 µg/ml).
(§2) E. faecium strains were streaked fresh from −80 °C stored glycerol stocks onto brain heart infusion (BHI) agar plates and incubated for 18 h at 37 °C. Strains harboring the plasmid derivatives were grown under antibiotic pressure on agar plates containing kanamycin at 1500 µg/ml. A single colony was inoculated into BHI or BHI-kanamycin (1500 µg/ml) for overnight cultures (18 h).
(§3) MIC determination was performed using a standard broth microdilution technique in duplicate from independent cultures. Overnight cultures were inoculated into 3 ml of BHI or BHI-kanamycin (1500 µg/ml) broth in a dilution of 1:100 and incubated until an OD600 of ~0.5 was reached. Cultures were diluted 1:1000 and inoculated into the 96-well plates with the corresponding antibiotics to be tested. Plates were incubated at 37 °C for 20 h and read by eye. […]

[2] = tested on: E. faecium D344SRF pCWR624Δpbp5_pbp5_V6; assay: MIC by broth microdilution, pbp5_V6; type: cell-based, Enterococcus faecium; settings: strain pbp5_V6 (E284A_E291A_S294A_N295A); 37 °C, 20 h; n=3
Description: as §1, §2, §3

Question: What does the source list for D-Lac-L-Ala-D-iGln-L-Lys(D-iAsn) [SP2]?
Answer: STD amplification factor, ref to SP1 (fraction) (PBP5:ceftaroline complex; 1H DLacβ): 0.3324; STD, ref to SP1 (percent) (PBP5:ceftaroline complex; 1H DLacβ): 33.2419; STD amplification factor (PBP5:ceftaroline complex; 1H DLacβ): 8.945; STD amplification factor, ref to SP1 (fraction) (PBP5:ceftaroline complex; 1H DQ2β (first listed)): 0.6862; STD, ref to SP1 (percent) (PBP5:ceftaroline complex; 1H DQ2β (first listed)): 68.622; STD amplification factor (PBP5:ceftaroline complex; 1H DQ2β (first listed)): 18.4651; STD amplification factor, ref to SP1 (fraction) (PBP5:ceftaroline complex; 1H DQ2β (second listed)): 0.9243; STD, ref to SP1 (percent) (PBP5:ceftaroline complex; 1H DQ2β (second listed)): 92.4275; STD amplification factor (PBP5:ceftaroline complex; 1H DQ2β (second listed)): 24.8707; STD amplification factor, ref to SP1 (fraction) (PBP5:ceftaroline complex; 1H DQ2γ): 0.3051; STD, ref to SP1 (percent) (PBP5:ceftaroline complex; 1H DQ2γ): 30.515; STD amplification factor (PBP5:ceftaroline complex; 1H DQ2γ): 8.211; STD amplification factor, ref to SP1 (fraction) (PBP5:ceftaroline complex; 1H K3α): 0.5095; STD, ref to SP1 (percent) (PBP5:ceftaroline complex; 1H K3α): 50.9537; STD amplification factor (PBP5:ceftaroline complex; 1H K3α): 13.7108; STD amplification factor, ref to SP1 (fraction) (PBP5:ceftaroline complex; 1H K3β): 1.007; STD, ref to SP1 (percent) (PBP5:ceftaroline complex; 1H K3β): 100.738; STD amplification factor (PBP5:ceftaroline complex; 1H K3β): 27.1069; STD amplification factor, ref to SP1 (fraction) (PBP5:ceftaroline complex; 1H K3γ): 0.5588; STD, ref to SP1 (percent) (PBP5:ceftaroline complex; 1H K3γ): 55.8765; STD amplification factor (PBP5:ceftaroline complex; 1H K3γ): 15.0355; STD amplification factor, ref to SP1 (fraction) (PBP5:ceftaroline complex; 1H K3δ): 0.7209; STD, ref to SP1 (percent) (PBP5:ceftaroline complex; 1H K3δ): 72.0884; STD amplification factor (PBP5:ceftaroline complex; 1H K3δ): 19.3978; STD amplification factor, ref to SP1 (fraction) (PBP5:ceftaroline complex; 1H K3ε): 0.1435; STD, ref to SP1 (percent) (PBP5:ceftaroline complex; 1H K3ε): 14.3544; STD amplification factor (PBP5:ceftaroline complex; 1H K3ε): 3.863; STD amplification factor, ref to SP1 (fraction) (PBP5:ceftaroline complex; 1H LA1α): 0.3824; STD, ref to SP1 (percent) (PBP5:ceftaroline complex; 1H LA1α): 38.2438; STD amplification factor (PBP5:ceftaroline complex; 1H LA1α): 10.2908; STD amplification factor, ref to SP1 (fraction) (PBP5:ceftaroline complex; 1H LA1β): 0.3611; STD, ref to SP1 (percent) (PBP5:ceftaroline complex; 1H LA1β): 36.1111; STD amplification factor (PBP5:ceftaroline complex; 1H LA1β): 9.717; STD amplification factor, ref to SP1 (fraction) (PBP5:ceftaroline complex; 1H iNα,DQ2α): 0.2432; STD, ref to SP1 (percent) (PBP5:ceftaroline complex; 1H iNα,DQ2α): 24.3189; STD amplification factor (PBP5:ceftaroline complex; 1H iNα,DQ2α): 6.544; STD amplification factor, ref to SP1 (fraction) (PBP5:ceftaroline complex; 1H iNβ): 0.3137; STD, ref to SP1 (percent) (PBP5:ceftaroline complex; 1H iNβ): 31.3676; STD amplification factor (PBP5:ceftaroline complex; 1H iNβ): 8.441; STD % to SP1 (PBP4; 1H DLacβ): 28.7108%; STD amplification factor as fraction of highest SP1:PBP5 value (PBP4; 1H DLacβ): 0.2871; STD amplification factor, 2000 (PBP4; 1H DLacβ): 7.726; STD % to SP1 (PBP4; 1H DQ2β (first listed)): 57.5161%; STD amplification factor as fraction of highest SP1:PBP5 value (PBP4; 1H DQ2β (first listed)): 0.5752; STD amplification factor, 2000 (PBP4; 1H DQ2β (first listed)): 15.4766; STD % to SP1 (PBP4; 1H DQ2β (second listed)): 62.3639%; STD amplification factor as fraction of highest SP1:PBP5 value (PBP4; 1H DQ2β (second listed)): 0.6236; STD amplification factor, 2000 (PBP4; 1H DQ2β (second listed)): 16.7811; STD % to SP1 (PBP4; 1H DQ2γ): 18.9556%; STD amplification factor as fraction of highest SP1:PBP5 value (PBP4; 1H DQ2γ): 0.1896; STD amplification factor, 2000 (PBP4; 1H DQ2γ): 5.101; STD % to SP1 (PBP4; 1H K3α): 41.8044%; STD amplification factor as fraction of highest SP1:PBP5 value (PBP4; 1H K3α): 0.418; STD amplification factor, 2000 (PBP4; 1H K3α): 11.2489; STD % to SP1 (PBP4; 1H K3β): 89.5852%; STD amplification factor as fraction of highest SP1:PBP5 value (PBP4; 1H K3β): 0.8959; STD amplification factor, 2000 (PBP4; 1H K3β): 24.1059; STD % to SP1 (PBP4; 1H K3γ): 46.145%; STD amplification factor as fraction of highest SP1:PBP5 value (PBP4; 1H K3γ): 0.4615; STD amplification factor, 2000 (PBP4; 1H K3γ): 12.4169; STD % to SP1 (PBP4; 1H K3δ): 58.6188%; STD amplification factor as fraction of highest SP1:PBP5 value (PBP4; 1H K3δ): 0.5862; STD amplification factor, 2000 (PBP4; 1H K3δ): 15.7734; STD % to SP1 (PBP4; 1H K3ε): 16.4854%; STD amplification factor as fraction of highest SP1:PBP5 value (PBP4; 1H K3ε): 0.1649; STD amplification factor, 2000 (PBP4; 1H K3ε): 4.436; STD % to SP1 (PBP4; 1H LA1α): 41.4108%; STD amplification factor as fraction of highest SP1:PBP5 value (PBP4; 1H LA1α): 0.4141; STD amplification factor, 2000 (PBP4; 1H LA1α): 11.143; STD % to SP1 (PBP4; 1H LA1β): 30.5144%; STD amplification factor as fraction of highest SP1:PBP5 value (PBP4; 1H LA1β): 0.3051; STD amplification factor, 2000 (PBP4; 1H LA1β): 8.211; STD % to SP1 (PBP4; 1H iNα,DQ2α): 21.1266%; STD amplification factor as fraction of highest SP1:PBP5 value (PBP4; 1H iNα,DQ2α): 0.2113; STD amplification factor, 2000 (PBP4; 1H iNα,DQ2α): 5.685; STD % to SP1 (PBP4; 1H iNβ): 26.2423%; STD amplification factor as fraction of highest SP1:PBP5 value (PBP4; 1H iNβ): 0.2624; STD amplification factor, 2000 (PBP4; 1H iNβ): 7.061

Question: Which results are given for `CO/N=C(\C(=O)N[C@@H]1C(=O)N2C(C(=O)O)=C(CSc3nc(=O)c(=O)[nH]n3C)CS[C@H]12)c1csc(N)n1` [Ceftriaxone, ceftriaxone]?
Answer: MIC (µg/ml) [Range] [1]: 25 [25] µg/ml; MIC (µg/ml) [Range] [2]: > 3200 [>3200] µg/ml
